Tested on: stable CF patients
Experiment: Phase 2 study: pulmonary function (FEV1, FVC, FEF 25-75)
Type: in vivo, human
Parameters: FEF 25-75, Median / FEV1, Day 14, Mean / FEF 25-75, Mean: unit not given here; FEV1, Day 1, Mean / FEV1, Day 1, Median / FEV1, Day 14, Median / FEV1, Day 28, Mean / FEV1, Day 28, Median: unit: L
Conditions: EE population
Description: The following dosage regimens (as nebulizer loaded doses) were evaluated: 120 mg QD (daily); 240 mg QD (daily); and 240 mg BID (twice daily).
Efficacy endpoints including clinical endpoints, pulmonary function tests, and additional microbiological parameters were assessed as change from Day 1 to subsequent visits where the endpoint data was collected. Time to need for intravenous/oral/inhaled anti-pseudomonal antimicrobials were assessed from Day 1 until final visit using survival analysis. The primary population for efficacy analysis was the EE population, but efficacy endpoints were also analyzed using the MITT population.
Changes in FEV1 (forced expiratory volume in 1 second), FVC (forced vital capacity) and FEF 25-75 (forced expiratory flow 25-75%) from Day 1 to all subsequent visits were determined for patients. Tables 26 and 27 summarize the results for FEV1 measurements in EE and MITT populations, respectively. FIGS. 7 and 8 show graphs of percent change in FEV1 (L) and percent change in FEV1(L) vs. placebo, respectively, at Day 28 for the EET population treated with placebo, 120 mg QD, 240 mg QD, or 240 mg BID. […] Tables 28 and 29 summarize the results for predicted FEVI measurements in EE and MITT populations, respectively. Tables 30 and 31 summarize results for FEF 25-75 measurements in EE and MITT populations, respectively.

[1] = Day 1 (baseline), combined 240 mg QD and BID
[2] = Day 14, combined 240 mg QD and BID

C[C@H]1COc2c(N3CCN(C)CC3)c(F)cc3c(=O)c(C(=O)O)cn1c23 [Levofloxacin, levofloxacin]
% predicted FEV1, Day 1, Mean (120 mg QD): 54.0 % predicted
% predicted FEV1, Day 1, Median (120 mg QD): 53.0 % predicted
% predicted FEV1, Day 14, Mean (120 mg QD): 54.7 % predicted
% predicted FEV1, Day 14, Median (120 mg QD): 53.0 % predicted
% predicted FEV1, Day 28, Mean (120 mg QD): 55.0 % predicted
% predicted FEV1, Day 28, Median (120 mg QD): 52.0 % predicted
FEF 25-75, Percent Change from Baseline to Day 14, Mean (120 mg QD): 0.41%
FEF 25-75, Percent Change from Baseline to Day 14, Median (120 mg QD): 0.45%
FEF 25-75, Percent Change from Baseline to Day 28, Mean (120 mg QD): 0.73%
FEF 25-75, Percent Change from Baseline to Day 28, Median (120 mg QD): 2.70%
FEV1, Day 1, Mean (120 mg QD): 1.99
FEV1, Day 1, Median (120 mg QD): 1.87
FEV1, Day 14, Mean (120 mg QD): 2.00
FEV1, Day 14, Median (120 mg QD): 1.82
FEV1, Day 28, Mean (120 mg QD): 2.03
FEV1, Day 28, Median (120 mg QD): 1.91
FEV1, Percent Change from Baseline to Day 14, Mean (120 mg QD): 1.13%
FEV1, Percent Change from Baseline to Day 14, Median (120 mg QD): 0.56%
FEV1, Percent Change from Baseline to Day 28, Mean (120 mg QD): 1.71%
FEV1, Percent Change from Baseline to Day 28, Median (120 mg QD): 1.06%
% predicted FEV1, Day 1, Mean (240 mg BID): 48.2 % predicted
% predicted FEV1, Day 1, Median (240 mg BID): 45.5 % predicted
% predicted FEV1, Day 14, Mean (240 mg BID): 51.7 % predicted
% predicted FEV1, Day 14, Median (240 mg BID): 49.5 % predicted
% predicted FEV1, Day 28, Mean (240 mg BID): 50.5 % predicted
% predicted FEV1, Day 28, Median (240 mg BID): 49.0 % predicted
FEF 25-75, Percent Change from Baseline to Day 14, Mean (240 mg BID): 16.99%
FEF 25-75, Percent Change from Baseline to Day 14, Median (240 mg BID): 11.66%
FEF 25-75, Percent Change from Baseline to Day 28, Mean (240 mg BID): 13.11%
FEF 25-75, Percent Change from Baseline to Day 28, Median (240 mg BID): 5.71%
FEV1, Day 1, Mean (240 mg BID): 1.86
FEV1, Day 1, Median (240 mg BID): 1.70
FEV1, Day 14, Mean (240 mg BID): 2.02
FEV1, Day 14, Median (240 mg BID): 1.88
FEV1, Day 28, Mean (240 mg BID): 1.90
FEV1, Percent Change from Baseline to Day 14, Mean (240 mg BID): 8.87%
FEV1, Percent Change from Baseline to Day 14, Median (240 mg BID): 7.51%
FEV1, Percent Change from Baseline to Day 28, Mean (240 mg BID): 5.05%
FEV1, Percent Change from Baseline to Day 28, Median (240 mg BID): 4.55%
% predicted FEV1, Day 1, Mean (240 mg QD): 55.9 % predicted
% predicted FEV1, Day 1, Median (240 mg QD): 56.0 % predicted
% predicted FEV1, Day 14, Mean (240 mg QD): 57.7 % predicted
% predicted FEV1, Day 14, Median (240 mg QD): 62.0 % predicted
% predicted FEV1, Day 28, Mean (240 mg QD): 57.3 % predicted
% predicted FEV1, Day 28, Median (240 mg QD): 58.0 % predicted
FEF 25-75, Percent Change from Baseline to Day 14, Mean (240 mg QD): 9.58%
FEF 25-75, Percent Change from Baseline to Day 14, Median (240 mg QD): 4.41%
FEF 25-75, Percent Change from Baseline to Day 28, Mean (240 mg QD): 4.70%
FEF 25-75, Percent Change from Baseline to Day 28, Median (240 mg QD): 5.77%
FEV1, Day 1, Mean (240 mg QD): 2.09
FEV1, Day 1, Median (240 mg QD): 2.02
FEV1, Day 14, Mean (240 mg QD): 2.16
FEV1, Day 14, Median (240 mg QD): 2.09
FEV1, Day 28, Mean (240 mg QD): 2.13
FEV1, Day 28, Median (240 mg QD): 2.15
FEV1, Percent Change from Baseline to Day 14, Mean (240 mg QD): 3.84%
FEV1, Percent Change from Baseline to Day 14, Median (240 mg QD): 1.92%
FEV1, Percent Change from Baseline to Day 28, Mean (240 mg QD): 2.51%
FEV1, Percent Change from Baseline to Day 28, Median (240 mg QD): 1.28%
% predicted FEV1, Day 1, Mean (Combined 240 mg QD and BID): 52.1 % predicted
% predicted FEV1, Day 1, Median (Combined 240 mg QD and BID): 51.0 % predicted
% predicted FEV1, Day 14, Mean (Combined 240 mg QD and BID): 54.7 % predicted
% predicted FEV1, Day 14, Median (Combined 240 mg QD and BID): 52.0 % predicted
% predicted FEV1, Day 28, Mean (Combined 240 mg QD and BID): 54.0 % predicted
% predicted FEV1, Day 28, Median (Combined 240 mg QD and BID): 54.0 % predicted
FEF 25-75, Percent Change from Baseline to Day 14, Mean (Combined 240 mg QD and BID): 13.23%
FEF 25-75, Percent Change from Baseline to Day 14, Median (Combined 240 mg QD and BID): 8.79%
FEF 25-75, Percent Change from Baseline to Day 28, Mean (Combined 240 mg QD and BID): 8.78%
FEF 25-75, Percent Change from Baseline to Day 28, Median (Combined 240 mg QD and BID): 5.74%
FEV1, Day 1, Mean (Combined 240 mg QD and BID): 1.98
FEV1, Day 1, Median (Combined 240 mg QD and BID): 1.81
FEV1, Day 14, Mean (Combined 240 mg QD and BID): 2.09
FEV1, Day 14, Median (Combined 240 mg QD and BID): 2.03
FEV1, Day 28, Mean (Combined 240 mg QD and BID): 2.02
FEV1, Day 28, Median (Combined 240 mg QD and BID): 1.98
FEV1, Percent Change from Baseline to Day 14, Mean (Combined 240 mg QD and BID): 6.32%
FEV1, Percent Change from Baseline to Day 14, Median (Combined 240 mg QD and BID): 3.94%
FEV1, Percent Change from Baseline to Day 28, Mean (Combined 240 mg QD and BID): 3.75%
FEV1, Percent Change from Baseline to Day 28, Median (Combined 240 mg QD and BID): 2.80%
FEF 25-75, Mean (Day 1 (baseline), 120 mg QD): 1.17
FEF 25-75, Median (Day 1 (baseline), 120 mg QD): 0.98
FEF 25-75, Mean (Day 1 (baseline), 240 mg BID): 0.85
FEF 25-75, Median (Day 1 (baseline), 240 mg BID): 0.68
FEF 25-75, Mean (Day 1 (baseline), 240 mg QD): 1.22
FEF 25-75, Median (Day 1 (baseline), 240 mg QD): 1.10
FEF 25-75, Mean [1]: 1.04
FEF 25-75, Median [1]: 0.83
FEF 25-75, Mean (Day 14, 120 mg QD): 1.18
FEF 25-75, Median (Day 14, 120 mg QD): 0.99
FEF 25-75, Mean (Day 14, 240 mg BID): 1.00
FEF 25-75, Median (Day 14, 240 mg BID): 0.78
FEF 25-75, Mean (Day 14, 240 mg QD): 1.33
FEF 25-75, Median (Day 14, 240 mg QD): 1.11
FEF 25-75, Mean [2]: 1.17
FEF 25-75, Median [2]: 0.92
FEF 25-75, Mean (Day 28, 120 mg QD): 1.23
FEF 25-75, Median (Day 28, 120 mg QD): 1.03
FEF 25-75, Mean (Day 28, 240 mg BID): 0.93
FEF 25-75, Median (Day 28, 240 mg BID): 0.78
FEF 25-75, Mean (Day 28, 240 mg QD): 1.27
FEF 25-75, Median (Day 28, 240 mg QD): 1.15
FEF 25-75, Mean (Day 28, combined 240 mg QD and BID): 1.10

From patent US10792289B2 (Horizon Orphan LLC, priority 2009, dated 2020)
